Results as given in patent publication US10722516B2, “Use of landiolol hydrochloride in the long-term treatment of tachyarrhythmias” (AOP Orphan Pharmaceuticals AG, priority 2013, dated 2020).
Counter-ions that a name gives are not always drawn.

System: healthy volunteers
Assay: 24 h long-term infusion study, AOP LDLL600 against esmolol: heart rate
Assay type: in vivo, human
Protocol: A single centre prospective, randomized, double blind, crossover, pharmacokinetic, safety and tolerability study to compare long-term infusion administration of AOP LDLL600 against esmolol in healthy volunteers was performed.
Landiolol hydrochloride lyophilized (LDLL600) comprises 600 mg landiolol hydrochloride, 600 mg mannitol, pH 6.5. The primary packing of LDLL600 is 50 ml vial, the reconstitution volume is 50 ml and the final product concentration is 12 mg/mL landiolol HCl.
12 subjects were administered AOP LDLL600 or Esmolol (Brevibloc, 2500 mg/250 ml) in 1:1 ratio in double-blind, randomized, cross-over setting. PK, systemic cardiovascular and local tolerability and safety of the 24 h-long term infusions of three dose levels of both IMPs during each treatment period were assessed.
Landiolol was infused over 24 h in a dose of 10 μg/KG/min (2 hrs), followed by 20 μg/KG/min (2 hrs), followed by 40 μg/KG/min for 20 hrs.
Dosing algorithm was body weight divided by 20, 10 and 5 in ml/h giving 10, 20 and 40 μg/KG/min at a concentration of 12 mg/ml. No severe adverse drug reactions, mild local reactions, 1 severe local reaction (Esmolol High Dose).
Landiolol was infused over 24 h in a dose of 10, 20 and 40 μg/KG/min, i.e. 10 μg/KG/min landiolol were administered for 2 hrs, followed by 2 hrs administration of 20 μg/KG/min and further followed by 20 hrs administration of 40 μg/KG/min.
Post-infusion follow up measurements were performed immediately after 20 hrs administration study, i.e. 2, 4 min etc. after stop of landiolol administration.

[1] = FU Predose (end of 20 h HD, infusion stop)
[2] = FU post-infusion, 20 h 2 min (2 min after infusion stop)
[3] = FU post-infusion, 20 h 4 min (4 min after infusion stop)
[4] = FU post-infusion, 20 h 6 min (6 min after infusion stop)
[5] = FU post-infusion, 20 h 8 min (8 min after infusion stop)
[6] = FU post-infusion, 20 h 12 min (12 min after infusion stop)
[7] = FU post-infusion, 20 h 16 min (16 min after infusion stop)
[8] = FU post-infusion, 20 h 20 min (20 min after infusion stop)
[9] = FU post-infusion, 20 h 30 min (30 min after infusion stop)
[10] = FU post-infusion, 21 h (1 h after infusion stop)
[11] = FU post-infusion, 22 h (2 h after infusion stop)
[12] = FU post-infusion, 24 h (4 h after infusion stop)
[13] = FU post-infusion, 26 h (6 h after infusion stop)
[14] = HD infusion (landiolol 40, esmolol 200 μg/kg/min, after LD and MD), 2 min
[15] = HD infusion (landiolol 40, esmolol 200 μg/kg/min, after LD and MD), 3 min
[16] = HD infusion (landiolol 40, esmolol 200 μg/kg/min, after LD and MD), 4 min
[17] = HD infusion (landiolol 40, esmolol 200 μg/kg/min, after LD and MD), 6 min
[18] = HD infusion (landiolol 40, esmolol 200 μg/kg/min, after LD and MD), 8 min
[19] = HD infusion (landiolol 40, esmolol 200 μg/kg/min, after LD and MD), 12 min
[20] = HD infusion (landiolol 40, esmolol 200 μg/kg/min, after LD and MD), 16 min
[21] = HD infusion (landiolol 40, esmolol 200 μg/kg/min, after LD and MD), 20 min
[22] = HD infusion (landiolol 40, esmolol 200 μg/kg/min, after LD and MD), 30 min
[23] = HD infusion (landiolol 40, esmolol 200 μg/kg/min, after LD and MD), 60 min
[24] = HD infusion (landiolol 40, esmolol 200 μg/kg/min, after LD and MD), 90 min
[25] = HD infusion (landiolol 40, esmolol 200 μg/kg/min, after LD and MD), 2 h
[26] = HD infusion (landiolol 40, esmolol 200 μg/kg/min, after LD and MD), 4 h
[27] = HD infusion (landiolol 40, esmolol 200 μg/kg/min, after LD and MD), 8 h
[28] = HD infusion (landiolol 40, esmolol 200 μg/kg/min, after LD and MD), 12 h
[29] = HD infusion (landiolol 40, esmolol 200 μg/kg/min, after LD and MD), 16 h
[30] = HD infusion (landiolol 40, esmolol 200 μg/kg/min, after LD and MD), 20 h (end)
[31] = LD infusion (landiolol 10, esmolol 50 μg/kg/min), 2 min
[32] = LD infusion (landiolol 10, esmolol 50 μg/kg/min), 3 min

In the case of CC1(C)OC[C@@H](COC(=O)CCc2ccc(OC[C@@H](O)CNCCNC(=O)N3CCOCC3)cc2)O1 [Landiolol, (−)-[(S)-2,2-dimethyl-1,3-dioxolan-4-yl]methyl 3-[4-[(S)-2-hydroxy-3-(2-morpholinocarbonylamino)ethylamino]propoxy]phenylpropionate monohydrochloride], the “change of heart rate from predose, Mean (SD)” value (“change of heart rate … (SD)” below) [1] is reported as −5.7 (11.51) beats per minute, the “heart rate, Mean (SD)” value [1] is reported as 61.7 (5.87) beats per minute and the “change of heart rate … (SD)” value [2] is reported as −6.8 (11.98) beats per minute. The “heart rate, Mean (SD)” value [2] was 60.6 (5.50) beats per minute, the “change of heart rate … (SD)” value [3] was −6.5 (9.88) beats per minute and the “heart rate, Mean (SD)” value [3] was 60.8 (4.04) beats per minute. For the same molecule, the “change of heart rate … (SD)” value [4] was −5.9 (9.79) beats per minute, the “heart rate, Mean (SD)” value [4] was 61.4 (5.43) beats per minute and the “change of heart rate … (SD)” value [5] was −5.7 (10.63) beats per minute. For the same molecule, the “heart rate, Mean (SD)” value [5] was 61.7 (5.33) beats per minute, the “change of heart rate … (SD)” value [6] was −3.8 (10.00) beats per minute and the “heart rate, Mean (SD)” value [6] was 63.5 (6.11) beats per minute. For the same molecule, the “change of heart rate … (SD)” value [7] was −0.3 (14.69) beats per minute, the “heart rate, Mean (SD)” value [7] was 67.0 (8.92) beats per minute and the “change of heart rate … (SD)” value [8] was −0.3 (11.89) beats per minute. For the same molecule, the “heart rate, Mean (SD)” value [8] was 67.0 (8.29) beats per minute, the “change of heart rate … (SD)” value [9] was 2.7 (9.47) beats per minute and the “heart rate, Mean (SD)” value [9] was 70.0 (5.70) beats per minute. For the same molecule, the “change of heart rate … (SD)” value [10] was 1.8 (12.70) beats per minute, the “heart rate, Mean (SD)” value [10] was 69.2 (9.64) beats per minute and the “change of heart rate … (SD)” value [11] was −0.5 (9.97) beats per minute. For the same molecule, the “heart rate, Mean (SD)” value [11] was 66.8 (8.43) beats per minute, the “change of heart rate … (SD)” value [12] was 4.2 (10.34) beats per minute and the “heart rate, Mean (SD)” value [12] was 71.5 (4.96) beats per minute. For the same molecule, the “change of heart rate … (SD)” value [13] was 5.3 (9.97) beats per minute, the “heart rate, Mean (SD)” value [13] was 72.6 (5.26) beats per minute and the “change of heart rate … (SD)” value (HD Predose (end of 2 h MD)) was −11.3 (9.41) beats per minute. The “heart rate, Mean (SD)” value (HD Predose (end of 2 h MD)) was 56.1 (7.38) beats per minute, the “change of heart rate … (SD)” value [14] was −9.6 (8.69) beats per minute and the “heart rate, Mean (SD)” value [14] was 57.8 (5.43) beats per minute. For the same molecule, the “change of heart rate … (SD)” value [15] was −9.9 (9.92) beats per minute, the “heart rate, Mean (SD)” value [15] was 57.4 (6.40) beats per minute and the “change of heart rate … (SD)” value [16] was −12.6 (9.52) beats per minute. The “heart rate, Mean (SD)” value [16] was 54.8 (5.45) beats per minute, the “change of heart rate … (SD)” value [17] was −9.7 (11.01) beats per minute and the “heart rate, Mean (SD)” value [17] was 57.7 (7.38) beats per minute. For the same molecule, the “change of heart rate … (SD)” value [18] was −10.7 (10.76) beats per minute, the “heart rate, Mean (SD)” value [18] was 56.7 (6.62) beats per minute and the “change of heart rate … (SD)” value [19] was −9.4 (12.21) beats per minute. The “heart rate, Mean (SD)” value [19] was 57.9 (8.13) beats per minute, the “change of heart rate … (SD)” value [20] was −11.3 (10.71) beats per minute and the “heart rate, Mean (SD)” value [20] was 56.0 (6.80) beats per minute. The “change of heart rate … (SD)” value [21] was −11.4 (9.74) beats per minute, the “heart rate, Mean (SD)” value [21] was 55.9 (6.35) beats per minute and the “change of heart rate … (SD)” value [22] was −10.5 (10.30) beats per minute. The “heart rate, Mean (SD)” value [22] was 56.8 (7.23) beats per minute, the “change of heart rate … (SD)” value [23] was −5.4 (13.14) beats per minute and the “heart rate, Mean (SD)” value [23] was 61.9 (8.93) beats per minute. For the same molecule, the “change of heart rate … (SD)” value [24] was −4.8 (11.24) beats per minute, the “heart rate, Mean (SD)” value [24] was 62.5 (5.95) beats per minute and the “change of heart rate … (SD)” value [25] was −3.0 (9.59) beats per minute. The “heart rate, Mean (SD)” value [25] was 64.3 (5.25) beats per minute, the “change of heart rate … (SD)” value [26] was −6.9 (11.24) beats per minute and the “heart rate, Mean (SD)” value [26] was 60.4 (5.25) beats per minute. The “change of heart rate … (SD)” value [27] was −9.8 (10.39) beats per minute, the “heart rate, Mean (SD)” value [27] was 57.5 (5.96) beats per minute and the “change of heart rate … (SD)” value [28] was −10.8 (10.17) beats per minute. For the same molecule, the “heart rate, Mean (SD)” value [28] was 56.5 (6.08) beats per minute, the “change of heart rate … (SD)” value [29] was −13.8 (10.01) beats per minute and the “heart rate, Mean (SD)” value [29] was 53.6 (4.89) beats per minute. The “change of heart rate … (SD)” value [30] was −5.7 (11.51) beats per minute, the “heart rate, Mean (SD)” value [30] was 61.7 (5.87) beats per minute and the “change of heart rate … (SD)” value [31] was −1.8 (7.77) beats per minute. The “heart rate, Mean (SD)” value [31] was 65.6 (5.09) beats per minute, the “change of heart rate … (SD)” value [32] was −2.5 (7.48) beats per minute and the “heart rate, Mean (SD)” value [32] was 64.8 (6.82) beats per minute. For the same molecule, the “change of heart rate … (SD)” value (LD infusion (landiolol 10, esmolol 50 μg/kg/min), 4 min) was −2.8 (6.38) beats per minute.
